# Source: patent US20130216666A1, “CASHEW NUT SHELL LIQUID WITH IMPROVED STABILITY” (IDEMITSU KOSAN CO., LTD., priority 2010, published 2013)
# Where two headings read alike, the source gives them in different places.
# Experiments:
# [1] = Inhibition of decarboxylation reaction in unheated cashew nut shell liquid formulation (silica), phosphoric acid / phosphate; type: physicochemical; settings: 80° C.; for Anacardic Acid 15:1 Composition (%) / Anacardic Acid 15:1 concentration / Anacardic Acid 15:2 Composition (%) / Anacardic Acid 15:2 concentration / Anacardic Acid 15:3 Composition (%) / Anacardic Acid 15:3 concentration / Cardanol 15:1 Composition (%) / Cardanol 15:1 concentration / Cardanol 15:2 Composition (%) / Cardanol 15:2 concentration / Cardanol 15:3 Composition (%) / Cardanol 15:3 concentration: 10% by weight in unheated CNSL, mixed with silica
# Description: 10 g of silica (Sipernat 22) was placed into each of beakers. […] The sodium dihydrogen phosphate was added as an aqueous solution.
# [2] = 80° C.; for Anacardic Acid 15:1 Composition (%) / Anacardic Acid 15:1 concentration / Anacardic Acid 15:2 Composition (%) / Anacardic Acid 15:2 concentration / Anacardic Acid 15:3 Composition (%) / Anacardic Acid 15:3 concentration / Cardanol 15:1 concentration / Cardanol 15:2 Composition (%) / Cardanol 15:2 concentration / Cardanol 15:3 Composition (%) / Cardanol 15:3 concentration: 10% by weight in unheated CNSL
# [3] = Inhibition of decarboxylation reaction in feed; settings: 10% by weight in unheated CNSL, 80° C.; for Anacardic Acid 15:1 Composition (%) / Anacardic Acid 15:1 concentration / Anacardic Acid 15:2 Composition (%) / Anacardic Acid 15:2 concentration / Anacardic Acid 15:3 Composition (%) / Anacardic Acid 15:3 concentration / Cardanol 15:1 Composition (%) / Cardanol 15:1 concentration / Cardanol 15:2 Composition (%) / Cardanol 15:2 concentration / Cardanol 15:3 Composition (%) / Cardanol 15:3 concentration: silica composition 1% by weight in feed;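 also: ethyl acetate extract of test feed analysed by reversed-phase C18 HPLC with absorbance detection at 280 nm, giving component composition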
# Description: The analysis was carried out under the conditions of a solvent composition of acetonitrile: water: acetic acid =80:20:1 (based on volume), a flow rate of 2 ml/min, a temperature of 25° C., and an absorbance of 280 nm.
# Samples were taken from the beakers after 3 days and analyzed for composition by HPLC.
# For HPLC analysis, soluble fractions of the test feed was extracted with ethyl acetate and then filtered and dried to concentrate it to 5 mg/ml.
smiles,measurement,setting,value
"O=P(O)(O)O [Phosphoric Acid, phosphoric acid]",Anacardic Acid 15:1 Composition (%),[1]; Day 0,40.20%
same,Anacardic Acid 15:1 concentration,[1]; Day 0,563.78 ppm
same,Anacardic Acid 15:2 Composition (%),[1]; Day 0,14.00%
same,Anacardic Acid 15:2 concentration,[1]; Day 0,196.40 ppm
same,Anacardic Acid 15:3 Composition (%),[1]; Day 0,32.21%
same,Anacardic Acid 15:3 concentration,[1]; Day 0,451.72 ppm
same,Cardanol 15:1 Composition (%),[1]; Day 0,5.74%
same,Cardanol 15:1 concentration,[1]; Day 0,80.56 ppm
same,Cardanol 15:2 Composition (%),[1]; Day 0,2.45%
same,Cardanol 15:2 concentration,[1]; Day 0,34.39 ppm
same,Cardanol 15:3 Composition (%),[1]; Day 0,5.39%
same,Cardanol 15:3 concentration,[1]; Day 0,75.66 ppm
same,Anacardic Acid 15:1 Composition (%),[1]; Day 3,38.30%
same,Anacardic Acid 15:1 concentration,[1]; Day 3,496.13 ppm
same,Anacardic Acid 15:2 Composition (%),[1]; Day 3,13.34%
same,Anacardic Acid 15:2 concentration,[1]; Day 3,172.83 ppm
same,Anacardic Acid 15:3 Composition (%),[1]; Day 3,30.69%
same,Anacardic Acid 15:3 concentration,[1]; Day 3,397.52 ppm
same,Cardanol 15:1 Composition (%),[1]; Day 3,7.46%
same,Cardanol 15:1 concentration,[1]; Day 3,96.68 ppm
same,Cardanol 15:2 Composition (%),[1]; Day 3,3.19%
same,Cardanol 15:2 concentration,[1]; Day 3,41.27 ppm
same,Cardanol 15:3 Composition (%),[1]; Day 3,7.01%
same,Cardanol 15:3 concentration,[1]; Day 3,90.79 ppm
same,inhibition of the decarboxylation,"[1]; formulation with silica, 10% by weight, 3 days",significant inhibition
same,Anacardic Acid 15:1 Composition (%),[2]; Day 0,32.73%
same,Anacardic Acid 15:1 concentration,[2]; Day 0,978 ppm
same,Anacardic Acid 15:2 Composition (%),[2]; Day 0,18.69%
same,Anacardic Acid 15:2 concentration,[2]; Day 0,559 ppm
same,Anacardic Acid 15:3 Composition (%),[2]; Day 0,42.99%
same,Anacardic Acid 15:3 concentration,[2]; Day 0,1285 ppm
same,Cardanol 15:1 concentration,[2]; Day 0,46 ppm
same,Cardanol 15:2 Composition (%),[2]; Day 0,1.26%
same,Cardanol 15:2 concentration,[2]; Day 0,38 ppm
same,Cardanol 15:3 Composition (%),[2]; Day 0,2.78%
same,Cardanol 15:3 concentration,[2]; Day 0,83 ppm
same,Anacardic Acid 15:1 Composition (%),[2]; Day 3,32.55%
same,Anacardic Acid 15:1 concentration,[2]; Day 3,968 ppm
same,Anacardic Acid 15:2 Composition (%),[2]; Day 3,18.61%
same,Anacardic Acid 15:2 concentration,[2]; Day 3,554 ppm
same,Anacardic Acid 15:3 Composition (%),[2]; Day 3,42.80%
same,Anacardic Acid 15:3 concentration,[2]; Day 3,1273 ppm
same,Cardanol 15:1 concentration,[2]; Day 3,46 ppm
same,Cardanol 15:2 Composition (%),[2]; Day 3,1.41%
same,Cardanol 15:2 concentration,[2]; Day 3,42 ppm
same,Cardanol 15:3 Composition (%),[2]; Day 3,3.10%
same,Cardanol 15:3 concentration,[2]; Day 3,92 ppm
same,inhibition of the decarboxylation,"[2]; 10% by weight, three days",significant inhibition
same,stability of the shell liquid in the feed (progress of the decarboxylation),"[3]; in feed, 3 days",stable in the feed without progress of the decarboxylation
same,Anacardic Acid 15:1 Composition (%),[3]; Day 0,40.28%
same,Anacardic Acid 15:1 concentration,[3]; Day 0,363.92 ppm
same,Anacardic Acid 15:2 Composition (%),[3]; Day 0,13.76%
same,Anacardic Acid 15:2 concentration,[3]; Day 0,124.28 ppm
same,Anacardic Acid 15:3 Composition (%),[3]; Day 0,33.11%
same,Anacardic Acid 15:3 concentration,[3]; Day 0,299.13 ppm
same,Cardanol 15:1 Composition (%),[3]; Day 0,5.39%
same,Cardanol 15:1 concentration,[3]; Day 0,48.69 ppm
same,Cardanol 15:2 Composition (%),[3]; Day 0,2.31%
same,Cardanol 15:2 concentration,[3]; Day 0,20.83 ppm
same,Cardanol 15:3 Composition (%),[3]; Day 0,5.15%
same,Cardanol 15:3 concentration,[3]; Day 0,46.52 ppm
same,Anacardic Acid 15:1 Composition (%),[3]; Day 3,39.75%
same,Anacardic Acid 15:1 concentration,[3]; Day 3,345.72 ppm
same,Anacardic Acid 15:2 Composition (%),[3]; Day 3,13.57%
same,Anacardic Acid 15:2 concentration,[3]; Day 3,118.06 ppm
same,Anacardic Acid 15:3 Composition (%),[3]; Day 3,32.67%
same,Anacardic Acid 15:3 concentration,[3]; Day 3,284.18 ppm
same,Cardanol 15:1 Composition (%),[3]; Day 3,5.88%
same,Cardanol 15:1 concentration,[3]; Day 3,51.13 ppm
same,Cardanol 15:2 Composition (%),[3]; Day 3,2.51%
same,Cardanol 15:2 concentration,[3]; Day 3,21.87 ppm
same,Cardanol 15:3 Composition (%),[3]; Day 3,5.62%
same,Cardanol 15:3 concentration,[3]; Day 3,48.85 ppm
